Where a SMILES comes first, the peptide text is derived from it. Bridges are numbered along the chain shown (N, C = ends). [ ]: non-standard residue; d: D form. hArg = N=C(N)NCCCC[C@H](N)C(=O)O; Mpa = O=C(O)CCS
Legend:
[1] = test system: platelets in platelet rich plasma (PRP); test: Microplate clot retraction method (thrombin-activated platelet rich plasma, O.D. 350 nm kinetics); format: cell-based, human; settings: for clot densification phase (phase 3) of the reaction kinetic curve: at the highest levels of inhibition
Description: Whole blood was collected in acid citrate dextrose tubes (ACD-A; BD Vacutainer, Franklin Lakes NJ) from healthy volunteers in accordance with a U.S. Army Research and Development Command approved protocol (USAISR L-20-003). Whole blood was centrifuged at 200×g for 10 minutes and platelet rich plasma (PRP) was obtained from the upper layer. Platelet poor plasma (PPP) was recovered from the remaining volume of the ACD-A tube after centrifugation at 3,000 times gravity (×g) for 10 minutes. To obtain apheresis platelets, the Trima Accel 7 (Terumo, Lakewood, CO) system was used for collection in either autologous plasma or Isoplate (65% Isoplate, 35% plasma). Platelet concentrations were determined on an Advia® 2120i (Siemens, Malvern, PA) and adjusted to 250,000 platelets/μL with autologous PPP, unless indicated otherwise.
Individual wells of a 96-well polystyrene microplate were coated with 150 μL of anti-adherence rinse solution (Stem Cell Technologies, Vancouver, Canada) and the microplate was centrifuged for 10 minutes at 1.300×g. The anti-adherence coating solution was aspirated and the coated wells were washed once with phosphate buffered saline. After washing, one side of each coated well was scored with an 18 Gauge (Ga) needle. Five μL of 30 U/ml thrombin (Haematologic Technologies, East Junction, VT) were added to each coated and scored well to initiate platelet aggregation, clot formation, and subsequent clot retraction.
PRP was supplemented with 6 mM CaCl2 (Sigma, St. Louis, MO) before aliquoting 180 μL to wells that were adjacent to the thrombin-containing (reaction) wells. The transfer of PRP to adjacent (staging) wells allowed for simultaneous transfer of multiple samples to the reaction wells using a multichannel pipette. The microplate was then loaded into a Synergy™ Neo2 microplate reader, and 145 μL of re-calcified PRP were transferred from the staging well to the reaction well. The plate scan was immediately started after addition of PRP. The plate scan protocol consisted of: temperature=37° C., assay duration=30 minutes, read interval=5 seconds, kinetic absorbance wavelength=350 nm, well scan absorbance wavelength=350 nm. After the plate scan protocol was completed, the plate was discarded and the data were exported as text files.
When indicated, the concentrations of platelets, CaCl2, or thrombin were varied to identify the optimal assay conditions for clot retraction. Additionally, PRP was pre-treated with increasing concentrations of inhibitors to platelet integrin αIIbβ3 (Eptifibatide, Sigma, St. Louis, MO), platelet-fibrin interaction (RGDS, Cayman Chemical, Ann Arbor, MI), and Src-family kinase (PP2, Sigma). Vehicle controls were the solvent used for the respective compound. Each treatment was performed in at least duplicate technical replicates.
Text files containing the optical density (O.D.) values were imported into R v4.0.5. Parameters of Rate of Clot Formation, Rate of Clot Retraction, Maximum O.D., Retraction Coefficient, Time to Maximum O.D., and Retraction Time were derived for each sample. Algorithms to extract parameters are described in Table 2, below.
Briefly, for Rates of Clot Formation and Retraction, a sliding window procedure was used to fit a linear model to a subset of 20 consecutive data points (k=20). The slope coefficient was extracted from each linear model and stored in an array. The Rates of Clot Formation and Retraction were defined as the maximum and minimum values, respectively, in the array. […] The data points represent donors and horizontal bars depicts medians. The Maximum and Minimum O.D. values were defined as the maximum and minimum readings, respectively. The Retraction Coefficient was defined as the difference between the Maximum and Minimum O.D. values, divided by the Maximum O.D. value. The Time to Maximum O.D. was defined as the time-point in which the Maximum O.D. value was observed. […]

[2] = test system: platelet rich plasma (PRP); test: Clot retraction assay in 2% Tween coated wells (optimization of assay agonist); format: cell-based, human; settings: 0.5, 1, 2 and 4 NIH units of thrombin, n=4
Description: Bottom halves of the individual wells in a 96-well plate were coated with 2% Tween and left in a vertical position inside a modified chamber for 90 minutes at room temperature. The coating solutions were then aspirated and allowed to air dry under the hood for 15 minutes. Whole blood collected in ACD tubes from healthy volunteers was subjected to centrifugation at 200×g for 10 minutes to obtain platelet rich plasma (PRP), followed by a second centrifugation at 3000×g for 10 minutes to obtain platelet poor plasma (PPP). When needed, platelet concentrations in the PRP were adjusted to desired levels using PPP. PRP samples (145 μL) were recalcified with 20 mM CaCl2 were then transferred into wells containing five μL of two NIH U/mLs of Thrombin. Further, the changes in absorbance during clot gelation and retraction were tracked at 350 nm using a microplate spectrophotometer for 90 minutes at 37° C.
To evaluate the appropriate thrombin concentration for the best outcome in the assay, we tested at 0.5, 1, 2 and 4 NIH units of thrombin (n=4). Once coagulation was initiated with thrombin, the clotting kinetics were characterized by a very short lag phase of initiation, a log phase of fibrin polymerization, a fibrin densification phase of platelet mediated fibrin remodeling, and a final rapid CR phase of declining absorbance. […]

thrombin
effect of thrombin concentration on the method's results ([1]; thrombin concentration varied, n=5): significantly affected the method's results in a concentration dependent manner
CR at 60 minutes after clot initiation [2]: 100%

[Ca+2].[Cl-].[Cl-] [CaCl2, Calcium chloride]
clot formation and clot retraction at the highest CaCl2 levels ([1]; CaCl2 concentration varied, n=5, highest levels): clot formation, but failure in clot retraction
differences in parameters across CaCl2 concentrations ([1]; range of 0 to 6 mM CaCl2): No differences

N=C(N)NCCCC[C@@H]1NC(=O)CCSSC[C@@H](C(N)=O)NC(=O)[C@@H]2CCCN2C(=O)[C@H](Cc2c[nH]c3ccccc23)NC(=O)[C@H](CC(=O)O)NC(=O)CNC1=O [Eptifibatide] ([Mpa][hArg]GDWPC-NH2; disulfide 1-7)
clot densification phase (phase 3) of the reaction kinetic curve [1]: absent or greatly diminished

C=C1[C@@H](C)[C@H]2[C@H](Cc3ccccc3)NC(=O)[C@]23[C@H](OC(C)=O)/C=C/[C@@](C)(O)C(=O)[C@@H](C)C/C=C/[C@H]3[C@@H]1O [cytochalasin D]
all parameters except Rate of Clot Formation and Maximum O.D., differences among treatment levels ([1]; cytochalasin D pretreatment, n=5, p<0.001): significant differences
dose dependence of the differences among conditions ([1]; cytochalasin D pretreatment, greatest departure from vehicle at highest concentrations): followed the dosing level

CC(C)(C)n1nc(-c2ccc(Cl)cc2)c2c(N)ncnc21 [PP2]
clot densification phase (phase 3) of the reaction kinetic curve [1]: absent or greatly diminished

Arg-Gly-Asp-Ser (RGDS; printed: Arg-Gly-Asp-Ser)
clot densification phase (phase 3) of the reaction kinetic curve [1]: absent or greatly diminished

Reference: patent US20230358769A1, “CLOT […] FOR QUALITY MONITORING OF PLATELET PRODUCTS” (THE GOVERNMENT OF THE UNITED STATES AS REPRESENTED BY THE …, priority 2022, published 2023)
